Among the test systems are SF-539; Malme-3M; CAKI-1; A549; HCT-116; SNB-19; SN12C; DU-145; COLO 205; MDA-MB-231; T47D; SK-MEL-28; K562; LOX IMVI; SK-OV-3; MCF7; SF-268; OVCAR-3; SK-MEL-5.
Common to all, as to assay: NCI anticancer screen, dose series, 48 h

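The compound was tested at five concentrations on cells cultured in 96-well plates, with a 48-hour exposure period. The concentration for 50% growth inhibition is given as GI50.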 Activity calls are given as the source filed them. Cut-off read from the data, not from the text of the source: active = GI50 up to about 1.1 µM and inactive = higher.

Turning to `O=C(O)c1ccc(SSc2ccc(C(=O)O)cn2)nc1`, the GI50 with SF-539, in the assay with Malme-3M, in the assay with CAKI-1, with A549, in the assay with HCT-116 and in the assay with SNB-19 was > 100 µM (inactive) throughout. Moreover, the GI50 in the assay on SN12C, in the assay with DU-145, in the assay on COLO 205, in the assay on MDA-MB-231, with T47D and in the assay on SK-MEL-28 was > 100 µM (inactive) in each case. For the same molecule, the GI50 in the assay on K562, in the assay with LOX IMVI, with SK-OV-3, in the assay with MCF7, in the assay with SF-268 and with OVCAR-3 was > 100 µM (inactive) throughout. Besides, the GI50 with SK-MEL-5 is > 100 µM (inactive).

With `CCOc1cc2c(cc1O)C(=O)C[C@@H]1[C@@H]2CC[C@]2(C)[C@@H](O)CC[C@@H]12`, the GI50 is 0.155 µM (active) with SF-539; 0.294 µM (active) in the assay on Malme-3M; 0.164 µM (active) in the assay with CAKI-1; 0.877 µM (active) in the assay on A549; 0.144 µM (active) in the assay with HCT-116; 0.189 µM (active) in the assay with SNB-19. Also, the GI50 is 0.353 µM (active) in the assay on SN12C; 0.337 µM (active) in the assay with DU-145; 20.5 µM (inactive) in the assay with COLO 205; 0.525 µM (active) in the assay with MDA-MB-231; 0.13 µM (active) with T47D; 0.19 µM (active) with SK-MEL-28. The GI50 in the assay with K562 is 0.0362 µM (active); with LOX IMVI, 0.189 µM (active); with SK-OV-3 it was 0.463 µM (active); in the assay with MCF7, 0.132 µM (active); in the assay on SF-268, 0.308 µM (active); in the assay on OVCAR-3 it was 0.092 µM (active). In the assay with SK-MEL-5, the GI50 was 0.0634 µM (active).

As for `CC(C)Oc1c(N(Cc2ccccc2)c2ccccc2C2SCCCS2)c(=O)c1=O`, the GI50 is 2.76 µM (inactive) in the assay with SF-539; 2.9 µM (inactive) in the assay with Malme-3M; 5.79 µM (inactive) in the assay on CAKI-1; 5.36 µM (inactive) with A549; 4.05 µM (inactive) in the assay with HCT-116; 3.9 µM (inactive) with SNB-19. The GI50 in the assay with SN12C is 6.17 µM (inactive); in the assay on DU-145, 4.18 µM (inactive); in the assay with COLO 205 it was 3.07 µM (inactive); with MDA-MB-231, 5.08 µM (inactive); in the assay on T47D it was 5.14 µM (inactive); with SK-MEL-28 it was 11.2 µM (inactive). Besides, the GI50 with K562 was 4.05 µM (inactive); with LOX IMVI, 5.56 µM (inactive); with SK-OV-3 it was 3.39 µM (inactive); in the assay with MCF7, 4.16 µM (inactive); in the assay on SF-268, 5.96 µM (inactive); in the assay with OVCAR-3 it was 2.33 µM (inactive). For the same molecule, the GI50 with SK-MEL-5 was 4.32 µM (inactive).

Consider `N#Cc1nnc2c3c(-c4ccc(Cl)cc4)c(C#N)c(O)nc3nn2c1N`, for which the GI50 was 2.88 µM (inactive) in the assay with SF-539; 14.4 µM (inactive) in the assay with Malme-3M; 5.6 µM (inactive) in the assay on CAKI-1; 21.1 µM (inactive) in the assay with A549; 3.51 µM (inactive) in the assay with HCT-116; 3.25 µM (inactive) with SNB-19. In addition, the GI50 in the assay on SN12C is 2.38 µM (inactive); in the assay with DU-145, 3.88 µM (inactive); in the assay with COLO 205 it was 11.7 µM (inactive); with MDA-MB-231 it was 13.4 µM (inactive); in the assay on T47D it was 1.17 µM (inactive); with SK-MEL-28, 11.9 µM (inactive). Besides, the GI50 with K562 is 7.33 µM (inactive); in the assay with LOX IMVI it was 2.85 µM (inactive); in the assay with SK-OV-3, 4.61 µM (inactive); in the assay with MCF7, 2.06 µM (inactive); with SF-268 it was 3.26 µM (inactive); in the assay on OVCAR-3 it was 3.27 µM (inactive). For the same molecule, in the assay on SK-MEL-5, the GI50 is 6.71 µM (inactive).

For `Nc1ncnc2c1ncc(=O)n2C1CC(O)C(CO)O1` (configuration not stated), the GI50 in the assay with SF-539, in the assay with Malme-3M, in the assay with CAKI-1, in the assay with A549, in the assay with HCT-116 and in the assay on SNB-19 was > 100 µM (inactive) each time. For the same molecule, the GI50 in the assay on SN12C, in the assay on DU-145, with COLO 205, with MDA-MB-231, in the assay on T47D and in the assay with SK-MEL-28 was > 100 µM (inactive) each time. Besides, the GI50 in the assay on K562, in the assay on LOX IMVI, in the assay on SK-OV-3, in the assay on MCF7, in the assay on SF-268 and with OVCAR-3 was > 100 µM (inactive) in each case. Further, the GI50 with SK-MEL-5 is > 100 µM (inactive).

Turning to `CCOC(=O)c1nc2cc(C(F)(F)F)ccc2nc1Nc1ccc(OC)c(OC)c1`, the GI50 in the assay with SF-539, in the assay with Malme-3M, in the assay with CAKI-1, in the assay on A549, in the assay with HCT-116 and in the assay on SNB-19 was > 100 µM (inactive) in each case. Besides, the GI50 with SN12C is > 100 µM (inactive); in the assay on DU-145 it was > 100 µM (inactive); with COLO 205, > 100 µM (inactive); with MDA-MB-231, > 100 µM (inactive); with T47D, 71.3 µM (inactive); with SK-MEL-28 it was > 100 µM (inactive). Further, the GI50 in the assay on K562, in the assay with LOX IMVI, in the assay on SK-OV-3, in the assay with MCF7, in the assay with SF-268 and with OVCAR-3 was > 100 µM (inactive) in each case. For the same molecule, the GI50 with SK-MEL-5 was > 100 µM (inactive).

In the case of `N#CSc1ccc(S(N)(=O)=O)cc1`, the GI50 is 25.1 µM (inactive) in the assay with SF-539; 83.6 µM (inactive) with Malme-3M; 56.5 µM (inactive) with CAKI-1; > 100 µM (inactive) in the assay with A549; 44.5 µM (inactive) in the assay with HCT-116; > 100 µM (inactive) in the assay with SNB-19. The GI50 was > 100 µM (inactive) in the assay with SN12C; > 100 µM (inactive) with DU-145; 71.1 µM (inactive) in the assay with COLO 205; 44.6 µM (inactive) in the assay with MDA-MB-231; 31.8 µM (inactive) in the assay with T47D; 76.7 µM (inactive) in the assay with SK-MEL-28. For the same molecule, the GI50 in the assay on K562 is 35.2 µM (inactive); in the assay on LOX IMVI, 31.3 µM (inactive); with SK-OV-3, > 100 µM (inactive); in the assay on MCF7 it was 35.6 µM (inactive); in the assay with SF-268 it was > 100 µM (inactive); in the assay on OVCAR-3, 52.2 µM (inactive). In addition, the GI50 in the assay with SK-MEL-5 is 75.2 µM (inactive).

On to `COc1ccc(CC2c3cc(OC)c(OC)cc3CC[N+]2(C)C)cc1OC` (configuration not stated), for which the GI50 in the assay with SF-539, with Malme-3M, with CAKI-1, with A549, in the assay with HCT-116 and with SNB-19 was > 100 µM (inactive) each time. Moreover, the GI50 with SN12C, with DU-145, in the assay with COLO 205, in the assay on MDA-MB-231, in the assay with T47D and in the assay on SK-MEL-28 was > 100 µM (inactive) each time. The GI50 in the assay on K562, in the assay with LOX IMVI, in the assay on SK-OV-3, in the assay with MCF7, with SF-268 and in the assay with OVCAR-3 was > 100 µM (inactive) each time. Besides, in the assay with SK-MEL-5, the GI50 is > 100 µM (inactive).

These data come from ChEMBL document CHEMBL1201862, “PubChem BioAssay data set” (2004).
